Data reported in patent publication US5559144A, “Furyl and thienyl alkynyl-N-hydroxy urea derivatives” (Abbott Laboratories, priority 1995, dated 1996).

Experiments:
[1] = biological target: T1, 5-Lipoxygenase from RBL-1 20,000xg Supernatant (Rattus norvegicus, UniProt P12527); assay: 5-lipoxygenase inhibitory activity, 20,000 xg supernatant from homogenized RBL-1 cells; type: biochemical; settings: radiolabeled arachidonic acid, triplicate
T1 construct: 20,000 xg supernatant from 1.5 million homogenized RBL-1 cells; endogenous in cells; host or cells: RBL-1 cells (20,000 xg supernatant of homogenate)
T1 sequence (P12527 1-673): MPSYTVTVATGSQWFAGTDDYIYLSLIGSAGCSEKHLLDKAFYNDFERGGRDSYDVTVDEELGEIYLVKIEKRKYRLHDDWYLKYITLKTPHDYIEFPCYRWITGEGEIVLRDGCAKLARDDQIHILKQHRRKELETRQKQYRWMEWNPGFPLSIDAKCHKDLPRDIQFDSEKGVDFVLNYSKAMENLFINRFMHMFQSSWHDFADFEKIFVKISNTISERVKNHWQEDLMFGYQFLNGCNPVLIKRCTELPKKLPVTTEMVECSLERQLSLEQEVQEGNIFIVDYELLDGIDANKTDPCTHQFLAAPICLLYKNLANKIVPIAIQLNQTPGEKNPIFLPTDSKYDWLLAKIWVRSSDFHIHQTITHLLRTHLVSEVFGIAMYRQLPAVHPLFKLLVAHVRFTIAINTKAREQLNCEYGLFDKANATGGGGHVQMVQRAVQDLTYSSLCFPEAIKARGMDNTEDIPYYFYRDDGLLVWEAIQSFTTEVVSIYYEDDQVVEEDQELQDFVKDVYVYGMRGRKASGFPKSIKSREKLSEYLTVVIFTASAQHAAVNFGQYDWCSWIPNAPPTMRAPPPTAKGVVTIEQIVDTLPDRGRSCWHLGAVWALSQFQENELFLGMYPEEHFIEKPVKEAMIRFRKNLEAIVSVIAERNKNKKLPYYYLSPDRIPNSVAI
Experimental: Assays to determine 5-lipoxygenase inhibitory activity of representative compounds of the present invention were performed in […] incubations containing the 20,000 xg supernatant from 1.5 million homogenized RBL-1 cells and various concentrations of the test compound. Reactions were initiated by addition of radiolabeled arachidonic acid and terminated by acidification and ether extraction. Reaction products were separated from nonconverted substrate by thin layer chromatography and measured by liquid scintillation spectroscopy. All incubations are performed in triplicate. Inhibition of 5-lipoxygenase activity was calculated as the ratio of the amount of product formed in the presence and absence of inhibitor. […] (Dyer, R. D.; Haviv, F.; Hanel, A. M.; Bornemier, D. A.; Carter, G. W. Fed. Proc., Fed. Am. Soc. Exp. Biol. 1984, 43, 1462A).

[2] = tested on: Leukotrienes (biosynthesis); assay: Inhibition of leukotriene biosynthesis in vivo after oral administration, rat peritoneal anaphylaxis model; settings: 1 h, gavage one hour prior to antigen challenge, read-out: Percent Inhibition of Leukotrienes; for inhibition in vivo at 200 µmol/kg: Oral Dose at 200 μmol/kg; for inhibition in vivo at 100 µmol/kg: Oral Dose at 100 μmol/kg; for inhibition in vivo at 30 µmol/kg: Oral Dose at 30 μmol/kg
Experimental: Inhibition of the biosynthesis of leuktrienes in vivo after oral administration of compound was determined using a rat peritoneal anaphylaxis model in a similar manner as that described by Young and coworkers (Young, P. R.; Dyer, R. D.; Carter, G. W. Fed. Proc., Fed. Am. Soc. Exp. Biol. 1985, 44, 1185). In this model rats were injected intraperitoneally (ip) with rabbit antibody to bovine serum albumin (BSA) and three hours later injected ip with BSA to induce an antgen-antibody response. Rats were sacrificed 15 minutes after this challenge and the peritoneal fluids were collected and analyzed for leukotriene levels. Test compounds were administered by gavage one hour prior to the antigen challenge. Percent inhibition values were determined by comparing the treatment group to the mean of the control group.

Row | Structure (SMILES) | IC50 [1] [µM] | inhibition in vivo at 200 µmol/kg [2] [%] | inhibition in vivo at 100 µmol/kg [2] [%] | inhibition in vivo at 30 µmol/kg [2] [%]
1 | CC(C#Cc1cccc(Oc2ccccn2)c1)N(O)C(N)=O (stereo not shown) [Example 47, N-Hydroxy-N-[4-[3-(2-pyridinyloxy)phenyl]-3-butyn-2-yl]urea] | 0.9 |  | 99 | 
2 | COc1ccc(Oc2cccc(C#CCN(O)C(N)=O)c2)cc1 [Example 39] | 0.6 |  | 96 | 
3 | CC(C#Cc1ccc(Oc2ccc(F)cc2)o1)N(O)C(N)=O (stereo not shown) [Example 57, N-hydroxy-N-{4-[5-(4-fluorophenoxy)-2-furyl]-3-butyn-2-yl}urea] | 0.2 |  |  | 83
4 | NC(=O)N(O)CC#Cc1cccc(Oc2ccc(F)cc2)c1 [Example 44, N-Hydroxy-N-[3-[3-(4-fluorophenoxy)phenyl]-2-propynyl]urea] | 0.4 |  | 99 | 
5 | CC(C#Cc1cccc(Oc2cccc(Cl)n2)c1)N(O)C(N)=O (stereo not shown) [Example 68, N-Hydoxy-N-[4-[3-(6-chloropyridin-2-yloxy)phenyl]-3-butyn-2-yl]urea] | 0.2 |  |  | 61
6 | Cc1ccc(Oc2cccc(C#CCN(O)C(N)=O)c2)cc1 [Example 36, N-Hydroxy-N-[3-[3-(4-methylphenoxy)phenyl]-2-propynyl]urea] | 0.6 |  | 99 | 
7 | CCc1ccc(C#CC(C)N(O)C(=O)NC)cc1 (stereo not shown) [Example 25, N-Hydroxy-N-[4-(4-ethylphenyl)-3-butyn-2-yl]-N'-methylurea] | 0.4 |  | 69 | 
8 | Cc1cccc(Oc2cccc(C#CC(C)N(O)C(N)=O)c2)n1 (stereo not shown) [Example 67, N-Hydroxy-N-[4-[3-(6-methylpyridin-2-yloxy)phenyl]-3-butyn-2-yl]urea] | 0.3 |  |  | 56
9 | CC(C#Cc1ccc(Br)cc1)N(O)C(N)=O (stereo not shown) [Example 17, N-Hydroxy-N-[4-(4-bromophenyl)-3-butyn-2-yl]urea] | 0.8 | 98 |  | 

Further molecules by falling IC50 [1], results first:

Row | IC50 [1] [µM] | Structure (SMILES) | inhibition in vivo at 200 µmol/kg [2] [%] | inhibition in vivo at 100 µmol/kg [2] [%] | inhibition in vivo at 30 µmol/kg [2] [%]
10 | 5.9 | NC(=O)N(O)CC#Cc1ccccc1 [Example 32, N-Hydroxy-N,(3,phenyl-2-propynyl)urea] |  | 97 | 
11 | 2.1 | CC(C#CCc1ccccc1)N(O)C(N)=O (stereo not shown) [Example 30, N-Hydroxy-N-(5-phenyl-3-pentyn-2-yl)urea] |  | 95 | 
12 | 1.2 | CC(C#Cc1cccc(Oc2ccncc2)c1)N(O)C(N)=O (stereo not shown) [Example 46, N-Hydroxy-N-[4-[3-(4-pyridinyloxy)phenyl]-3-butyn-2-yl]urea] |  | 98 | 
13 | 0.7 | CC(C#CCCCc1ccccc1)N(O)C(N)=O (stereo not shown) [Example 11, N-Hydroxy,N-(7-phenyl-3-heptyn-2-yl)urea] | 99 |  | 
14 | 0.6 | CCC(C#Cc1cccc(Oc2ccccn2)c1)N(O)C(N)=O (stereo not shown) [Example 64, N-Hydroxy-N-[5-[3-(2-pyridinyloxy)phenyl]-4-pentyn-3-yl]urea] |  |  | 78
15 | 0.5 | CC(C#Cc1cccc(Oc2nccs2)c1)N(O)C(N)=O (stereo not shown) [Example 66, N-Hydroxy-N-[4-[3-(2-thiazolyloxy)phenyl]-3-butyn-2-yl]urea] |  |  | 40
16 | 0.4 | CC(C#Cc1ccc(Cl)cc1)N(O)C(N)=O (stereo not shown) [Example 19, N-Hydroxy-N-[4-(4-chlorophenyl)-3-butyn-2-yl]urea] |  | 82 | 
17 | 0.4 | CC(C#CCSc1ccccc1)N(O)C(N)=O (stereo not shown) [Example 4, N-Hydroxy-N-(5phenylthio-3-pentyn-2-yl)urea] | 64 |  | 
18 | 0.3 | CC(C#Cc1cccc(Oc2ccc(F)cc2)c1)N(O)C(N)=O (stereo not shown) [Example 43, N-Hydroxy-N-[4-[3-(4-fluorophenoxy)phenyl]-3-butyn-2-yl]urea] |  | 98 | 
19 | 0.3 | Cc1ccc(Oc2ccc(C#CC(C)N(O)C(N)=O)o2)cc1 (stereo not shown) [Example 62, N-hydroxy-N-{4-[5-(4-methylphenoxy)-2-furyl]-3-butyn-2-yl}urea] |  |  | 65
20 | 0.2 | CC(C#Cc1ccc(Oc2ccccc2)o1)N(O)C(N)=O (stereo not shown) [Example 58, N-hydroxy-N-[4-(5-phenoxy-2-furyl)-3-butyn-2-yl]urea] |  |  | 83
